Laboratory results from ChEMBL document CHEMBL1240318, “Developing a new resource for drug discovery: marine actinomycete bacteria” (2006).
Converted amounts (≈) assume the structure as drawn.

Assays:
Type in all cases: functional
[1] = system: SK-MEL-5; experiment: Antitumor activity against human SK-MEL-5 cells; conditions: read-out: LC50 (the source's name)
[2] = system: Enterococcus faecium; experiment: Antimicrobial activity against vancomycin-resistant Enterococcus faecium assessed as growth inhibition
[3] = system: Staphylococcus aureus; experiment: Antimicrobial activity against methicillin-resistant Staphylococcus aureus assessed as growth inhibition
[4] = system: Candida albicans; experiment: Antimicrobial activity against amphotericin-resistant Candida albicans

## C\C1=C/C=C/C=C/C=C/c2cccc(O)c2C(=O)O[C@@H](C[C@@H](C)O)C[C@@H](O)C/C=C/[C@@H](O)C[C@@H](O)CC(C)/C=C/C=C/C=C/C=C/c2cccc(O)c2C(=O)O[C@@H](C[C@@H](C)O)C[C@@H](O)C/C=C/[C@@H](O)C[C@@H](O)C1 (some centres undefined) [MARINOMYCIN A]
[1]
  CC50: 5 nM
[2]
  MIC: 0.1 µM (≈ 0.101 µg/mL)
[3]
  MIC: 0.1 µM (≈ 0.101 µg/mL)
[4]
  MIC90: 7.8 µM (≈ 7.89 µg/mL)
